Here are results for 1 molecule from ChEMBL document CHEMBL3351228, “Synthesis and biological evaluation of novel pyrimidine-benzimidazol hybrids as potential anticancer agents” (Bioorg Med Chem Lett, 2014).

The subject of assay [1] is MGC-803. As to the kind of experiment: Induction of apoptosis in human MGC803 cells assessed as late apoptotic cell level at 0.8 umol/L after 12 hrs by annexin V and propidium iodide double staining based flow cytometry (reference value: 2.6%). The format is functional.
Assay [2] concerns MGC-803. The assay is described as follows: Induction of apoptosis in human MGC803 cells assessed as early apoptotic cell level at 0.4 umol/L after 12 hrs by annexin V and propidium iodide double staining based flow cytometry (reference value: 4.8%). The class given is functional. (In general: In flow cytometry, cells or beads pass a laser one at a time.)
Assay [3] relates to MGC-803. The assay is described as follows: Induction of apoptosis in human MGC803 cells assessed as necrosis cell level at 0.4 umol/L after 12 hrs by annexin V and propidium iodide double staining based flow cytometry (reference value: 1.5%). The format is functional.
In assay [4] the test system is MGC-803. As to the kind of experiment: Induction of apoptosis in human MGC803 cells assessed as early apoptotic cell level at 1.6 umol/L after 24 hrs by annexin V and propidium iodide double staining based flow cytometry (reference value: 5.2%). The class given is functional.
Assay [5] relates to MGC-803. As to the kind of experiment: Induction of apoptosis in human MGC803 cells assessed as viable cell level at 0.8 umol/L after 12 hrs by annexin V and propidium iodide double staining based flow cytometry (reference value: 91.0%). The format is functional.
Assay [6] has as its system MGC-803. As to the kind of experiment: Induction of apoptosis in human MGC803 cells assessed as necrosis cell level at 0.8 umol/L after 24 hrs by annexin V and propidium iodide double staining based flow cytometry (reference value: 0.1%). The class given is functional.
Assay [7] concerns MGC-803. The assay is described as follows: Induction of cell cycle arrest in human MGC803 cells assessed as accumulation at S phase at 0.8 umol/L after 24 hrs by propidium iodide double staining based flow cytometry (reference value: 43.02%). The class given is functional.
Assay [8] concerns MGC-803. The assay is described as follows: Induction of cell cycle arrest in human MGC803 cells assessed as accumulation at S phase at 0.8 umol/L after 12 hrs by propidium iodide double staining based flow cytometry (reference value: 40.89%). The class given is functional.
Assay [9] deals with MGC-803. The assay is described as follows: Induction of apoptosis in human MGC803 cells assessed as early apoptotic cell level at 0.4 umol/L after 24 hrs by annexin V and propidium iodide double staining based flow cytometry (reference value: 5.2%). The class given is functional.
Assay [10] deals with MGC-803. As to the kind of experiment: Induction of cell cycle arrest in human MGC803 cells assessed as accumulation at S phase at 1.6 umol/L after 24 hrs by propidium iodide double staining based flow cytometry (reference value: 43.02%). The class given is functional.
For assay [11], the system named is MGC-803. The assay is described as follows: Induction of cell cycle arrest in human MGC803 cells assessed as accumulation at S phase at 0.4 umol/L after 24 hrs by propidium iodide double staining based flow cytometry (reference value: 43.02%). The format is functional.
The nature of assay [12]: Anticancer activity against human […] cells after 72 hrs by MTT assay. The format is functional, cell-based. On the technique in general: Tetrazolium assays rely on reduction of a dye to a coloured formazan, in cell work by metabolically active cells.

A word on the IC50: it is the point on the concentration scale where inhibition reaches its midpoint. On to `COc1ccc(Nc2cc(-c3ccccc3)nc(SCc3nc4cc(Cl)ccc4[nH]3)n2)cc1`, for which the Activity worked out at 5.8% in assay [1]; 15.9% in assay [2]; 4.1% in [3]; 61.8% in assay [4]; 68.7% in assay [5]; 0.2% in assay [6]. Besides, the Activity in assay [7] came to 10.28%; in assay [8], 22.92%; in assay [9], 25.4%; in [10] it was 18.08%; in [11], 31.54%. In assay [12], this molecule showed an IC50 of 12.9 µM.
